Tests used:
[1] = biological target: T1, Cysteinyl leukotriene receptor 1 (Homo sapiens, UniProt Q9Y271); assay type: cell membranes, CHO-K1, Membrane; further: in other assays of this panel Not Active means under 50% inhibition at 10 µM
T1 sequence (Q9Y271 whole entry): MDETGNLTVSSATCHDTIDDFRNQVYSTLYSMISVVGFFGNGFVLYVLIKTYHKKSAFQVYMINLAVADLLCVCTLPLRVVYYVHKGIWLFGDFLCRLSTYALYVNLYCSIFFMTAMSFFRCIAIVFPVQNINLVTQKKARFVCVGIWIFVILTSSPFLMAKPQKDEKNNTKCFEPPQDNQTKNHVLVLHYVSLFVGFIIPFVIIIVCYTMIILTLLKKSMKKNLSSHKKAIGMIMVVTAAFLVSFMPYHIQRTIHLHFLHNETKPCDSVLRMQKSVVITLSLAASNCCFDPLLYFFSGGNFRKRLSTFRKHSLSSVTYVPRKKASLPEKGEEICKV

[2] = biological target: cGMP-specific 3',5'-cyclic phosphodiesterase (Homo sapiens, UniProt O76074); experiment: DRUGMATRIX: Phosphodiesterase PDE5 enzyme inhibition (substrate: [3H]cGMP + cGMP); assay type: tissue-based, Platelet; conditions: platelet; Not Active = under 50% inhibition at 10 µM
[3] = biological target: T2, Alpha-1D adrenergic receptor (Homo sapiens, UniProt P25100); assay type: cell membranes, HEK293, Membrane; conditions: for Ki: read-out: Ki; on all read-outs here: in other assays of this panel Not Active means under 50% inhibition at 10 µM
T2 sequence (P25100 whole entry): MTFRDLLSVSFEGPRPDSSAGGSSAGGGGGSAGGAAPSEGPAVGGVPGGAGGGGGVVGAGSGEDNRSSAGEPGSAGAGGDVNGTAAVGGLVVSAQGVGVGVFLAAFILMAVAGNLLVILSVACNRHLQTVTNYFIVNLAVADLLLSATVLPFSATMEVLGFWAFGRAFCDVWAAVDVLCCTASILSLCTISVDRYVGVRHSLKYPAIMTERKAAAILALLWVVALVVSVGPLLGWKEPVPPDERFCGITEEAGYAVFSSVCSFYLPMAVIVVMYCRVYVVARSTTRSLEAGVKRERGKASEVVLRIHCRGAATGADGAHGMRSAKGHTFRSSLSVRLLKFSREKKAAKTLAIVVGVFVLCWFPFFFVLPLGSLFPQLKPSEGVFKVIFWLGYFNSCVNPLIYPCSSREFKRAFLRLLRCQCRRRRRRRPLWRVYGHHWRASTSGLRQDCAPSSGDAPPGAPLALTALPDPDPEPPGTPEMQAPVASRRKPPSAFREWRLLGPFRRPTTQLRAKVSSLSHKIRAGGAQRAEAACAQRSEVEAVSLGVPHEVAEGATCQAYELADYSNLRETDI

[4] = biological target: Mitogen-activated protein kinase 1 (Homo sapiens, UniProt P28482); experiment: DRUGMATRIX: Protein Serine/Threonine Kinase, ERK2 enzyme inhibition (substrate: Myelin Basic Protein); set-up: species or system Escherichia coli; conditions: Not Active = under 50% inhibition at 10 µM
[5] = biological target: Vascular endothelial growth factor receptor 1 (Homo sapiens, UniProt P17948); assay type: cell-based; conditions: huvec; further: in other assays of this panel Not Active means under 50% inhibition at 10 µM
[6] = biological target: T3, Neuropeptide Y receptor type 2 (Homo sapiens, UniProt P49146); assay type: cell membranes, Membrane; conditions: kan-ts; further: in other assays of this panel Not Active means under 50% inhibition at 10 µM
T3 sequence (P49146 whole entry): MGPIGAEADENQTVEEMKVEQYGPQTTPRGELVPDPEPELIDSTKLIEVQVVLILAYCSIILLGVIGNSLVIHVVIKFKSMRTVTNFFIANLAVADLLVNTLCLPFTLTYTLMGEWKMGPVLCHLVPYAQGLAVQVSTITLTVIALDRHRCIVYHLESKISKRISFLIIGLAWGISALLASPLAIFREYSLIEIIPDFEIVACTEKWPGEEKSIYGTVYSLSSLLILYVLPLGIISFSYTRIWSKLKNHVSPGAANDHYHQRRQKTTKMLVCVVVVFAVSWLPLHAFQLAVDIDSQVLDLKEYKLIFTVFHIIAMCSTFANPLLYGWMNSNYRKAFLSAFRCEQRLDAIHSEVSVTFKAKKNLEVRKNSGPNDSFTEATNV

[7] = DRUGMATRIX: Atrial Natriuretic Factor (ANF) radioligand binding (ligand: [125I] ANF (rat)); assay type: cell membranes, Cavia porcellus, Dunkin-Hartley, Adrenal gland, Membrane; conditions: Not Active = under 50% inhibition at 10 µM
[8] = biological target: C-C chemokine receptor type 5 (Homo sapiens, UniProt P51681); assay type: cell membranes, Membrane; conditions: hek293; further: in other assays of this panel Not Active means under 50% inhibition at 10 µM
[9] = biological target: T4, Thromboxane-A synthase (Homo sapiens, UniProt P24557); experiment: biochemical; assay type: tissue-based, Platelet
T4 sequence (P24557 whole entry): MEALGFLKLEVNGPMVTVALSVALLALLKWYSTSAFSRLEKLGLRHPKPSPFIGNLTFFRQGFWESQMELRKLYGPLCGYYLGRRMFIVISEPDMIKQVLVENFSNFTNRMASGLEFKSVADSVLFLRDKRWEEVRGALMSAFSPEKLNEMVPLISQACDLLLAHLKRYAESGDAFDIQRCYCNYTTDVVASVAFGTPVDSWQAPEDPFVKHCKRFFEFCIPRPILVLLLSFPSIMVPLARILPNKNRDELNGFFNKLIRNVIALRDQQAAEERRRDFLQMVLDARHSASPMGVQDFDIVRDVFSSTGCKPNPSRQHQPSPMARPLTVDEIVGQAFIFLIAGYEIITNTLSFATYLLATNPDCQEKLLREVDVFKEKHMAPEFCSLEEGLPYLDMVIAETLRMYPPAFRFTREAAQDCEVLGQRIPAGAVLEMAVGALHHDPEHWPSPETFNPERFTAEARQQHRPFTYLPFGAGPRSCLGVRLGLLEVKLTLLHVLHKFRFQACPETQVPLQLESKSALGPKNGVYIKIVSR

[10] = biological target: 5-hydroxytryptamine receptor 1B (Rattus norvegicus, UniProt P28564); assay type: cell membranes, Wistar, Cerebral cortex, Membrane; conditions: for Ki: read-out: Ki
[11] = biological target: Platelet-activating factor receptor (Homo sapiens, UniProt P25105); experiment: biochemical; assay type: tissue-based; further: in other assays of this panel Not Active means under 50% inhibition at 10 µM
Platelet-activating factor receptor, sequence (P25105 whole entry): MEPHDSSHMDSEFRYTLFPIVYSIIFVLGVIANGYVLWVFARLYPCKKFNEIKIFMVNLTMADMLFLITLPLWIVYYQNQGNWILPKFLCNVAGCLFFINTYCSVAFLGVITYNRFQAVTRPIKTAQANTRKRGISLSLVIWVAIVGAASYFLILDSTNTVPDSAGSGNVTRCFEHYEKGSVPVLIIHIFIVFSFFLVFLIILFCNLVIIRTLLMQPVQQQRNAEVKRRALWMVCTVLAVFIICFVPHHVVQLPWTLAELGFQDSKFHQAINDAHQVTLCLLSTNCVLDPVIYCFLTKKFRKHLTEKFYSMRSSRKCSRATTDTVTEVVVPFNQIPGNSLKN

C-C chemokine receptor type 5, sequence (P51681 whole entry): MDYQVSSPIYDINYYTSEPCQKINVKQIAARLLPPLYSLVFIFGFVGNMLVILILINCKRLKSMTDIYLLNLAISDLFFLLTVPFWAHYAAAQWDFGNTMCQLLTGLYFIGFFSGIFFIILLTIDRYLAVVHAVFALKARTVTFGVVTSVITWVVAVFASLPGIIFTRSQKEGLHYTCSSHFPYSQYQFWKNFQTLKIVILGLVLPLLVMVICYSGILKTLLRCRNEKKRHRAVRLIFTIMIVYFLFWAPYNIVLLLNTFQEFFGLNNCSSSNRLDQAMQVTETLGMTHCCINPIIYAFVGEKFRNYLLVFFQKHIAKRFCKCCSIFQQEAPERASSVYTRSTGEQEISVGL
Mitogen-activated protein kinase 1, sequence (P28482 whole entry): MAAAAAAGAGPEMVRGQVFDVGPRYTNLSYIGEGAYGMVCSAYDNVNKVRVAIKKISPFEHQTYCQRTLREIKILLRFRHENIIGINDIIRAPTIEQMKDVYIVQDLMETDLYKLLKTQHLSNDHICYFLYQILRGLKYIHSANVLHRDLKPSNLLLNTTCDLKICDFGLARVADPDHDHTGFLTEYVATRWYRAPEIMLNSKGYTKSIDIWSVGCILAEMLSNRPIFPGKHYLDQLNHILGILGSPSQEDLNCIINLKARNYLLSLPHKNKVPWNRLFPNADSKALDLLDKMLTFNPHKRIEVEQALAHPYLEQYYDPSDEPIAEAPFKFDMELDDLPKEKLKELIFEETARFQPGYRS
Vascular endothelial growth factor receptor 1, sequence (P17948 whole entry): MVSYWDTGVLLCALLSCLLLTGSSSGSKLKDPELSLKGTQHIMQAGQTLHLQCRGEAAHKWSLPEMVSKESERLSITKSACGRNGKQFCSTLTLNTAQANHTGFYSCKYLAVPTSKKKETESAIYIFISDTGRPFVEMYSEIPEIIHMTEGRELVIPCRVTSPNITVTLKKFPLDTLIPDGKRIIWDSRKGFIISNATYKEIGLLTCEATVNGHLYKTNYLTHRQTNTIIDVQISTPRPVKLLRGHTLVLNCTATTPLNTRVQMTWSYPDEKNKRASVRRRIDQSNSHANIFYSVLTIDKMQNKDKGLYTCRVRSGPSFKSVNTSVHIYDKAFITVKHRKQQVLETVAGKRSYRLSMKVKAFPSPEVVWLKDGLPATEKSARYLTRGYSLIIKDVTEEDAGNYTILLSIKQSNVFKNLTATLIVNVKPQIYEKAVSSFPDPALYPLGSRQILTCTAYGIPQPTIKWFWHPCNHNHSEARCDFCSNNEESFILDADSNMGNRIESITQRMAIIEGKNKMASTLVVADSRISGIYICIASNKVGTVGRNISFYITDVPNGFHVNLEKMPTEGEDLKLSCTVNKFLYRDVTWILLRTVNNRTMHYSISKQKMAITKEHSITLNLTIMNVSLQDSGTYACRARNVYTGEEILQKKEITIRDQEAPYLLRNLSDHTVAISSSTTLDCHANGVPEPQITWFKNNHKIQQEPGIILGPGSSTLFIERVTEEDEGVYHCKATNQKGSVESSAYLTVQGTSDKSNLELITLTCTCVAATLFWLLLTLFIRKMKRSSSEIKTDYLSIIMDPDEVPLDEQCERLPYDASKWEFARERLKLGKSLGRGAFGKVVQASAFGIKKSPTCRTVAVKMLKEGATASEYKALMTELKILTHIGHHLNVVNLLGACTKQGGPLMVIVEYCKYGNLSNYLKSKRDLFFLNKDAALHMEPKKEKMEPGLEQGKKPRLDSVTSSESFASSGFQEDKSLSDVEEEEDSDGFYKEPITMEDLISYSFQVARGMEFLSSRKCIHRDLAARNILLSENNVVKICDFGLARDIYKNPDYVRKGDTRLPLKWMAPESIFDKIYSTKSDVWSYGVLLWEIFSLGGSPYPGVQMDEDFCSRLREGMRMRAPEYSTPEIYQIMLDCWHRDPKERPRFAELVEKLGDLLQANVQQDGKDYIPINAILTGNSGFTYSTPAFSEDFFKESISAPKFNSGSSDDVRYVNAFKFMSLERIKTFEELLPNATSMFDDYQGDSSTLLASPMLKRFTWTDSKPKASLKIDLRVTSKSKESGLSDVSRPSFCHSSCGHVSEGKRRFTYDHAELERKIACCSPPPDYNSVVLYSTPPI
5-hydroxytryptamine receptor 1B, sequence (P28564 whole entry): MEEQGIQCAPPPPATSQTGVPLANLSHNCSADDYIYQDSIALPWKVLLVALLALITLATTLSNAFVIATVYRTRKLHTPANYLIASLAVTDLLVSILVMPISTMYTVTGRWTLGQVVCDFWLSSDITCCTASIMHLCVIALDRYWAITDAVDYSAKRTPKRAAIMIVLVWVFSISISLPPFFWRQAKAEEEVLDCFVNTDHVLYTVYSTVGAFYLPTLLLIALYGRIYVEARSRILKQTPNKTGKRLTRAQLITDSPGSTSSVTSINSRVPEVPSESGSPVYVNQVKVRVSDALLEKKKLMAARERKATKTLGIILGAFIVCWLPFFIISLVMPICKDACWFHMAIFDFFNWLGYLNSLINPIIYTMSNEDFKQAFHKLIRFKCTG

SMILES	IC50 ([1]; cho-k1)	IC50 [2]	IC50 ([3]; hek293)	IC50 [4]	IC50 [5]	IC50 [6]	IC50 [7]	Ki [7]	IC50 [8]	IC50 ([9]; platelet)	IC50 [10]	IC50 ([11]; platelet)	IC50 ([3]; read-out: IC50)	Ki [3]	further results
CN[C@@H]1[C@@H](O)[C@@H](O[C@@H]2[C@@H](O)[C@H](O[C@H]3OC(CN)=CC[C@H]3N)[C@@H](N)C[C@H]2N)OC[C@]1(C)O [SISOMICIN]	Not Active	Not Active	Not Active	Not Active	Not Active	Not Active	Not Active	Not Active	Not Active	Not Active	Not Active	Not Active	–	–	–
NNc1ccccc1 [PHENYLHYDRAZINE]	Not Active	Not Active	Not Active	Not Active	Not Active	Not Active	Not Active	Not Active	Not Active	Not Active	Not Active	Not Active	–	–	–
C[C@](N)(Cc1ccc(O)cc1)C(=O)O [METYROSINE]	Not Active	Not Active	Not Active	Not Active	Not Active	Not Active	Not Active	Not Active	Not Active	Not Active	Not Active	Not Active	–	–	–
CN1CCN2c3ccccc3Cc3ccccc3C2C1 (stereo not drawn) [MIANSERIN]	Not Active	Not Active	–	Not Active	Not Active	Not Active	–	–	Not Active	Not Active	Not Active	Not Active	0.083 µM	0.041 µM	–
CC(=O)[C@H]1CC[C@H]2[C@@H]3CCC4=CC(=O)CC[C@]4(C)[C@H]3CC[C@]12C [PROGESTERONE]	Not Active	Not Active	Not Active	Not Active	Not Active	Not Active	Not Active	Not Active	Not Active	Not Active	Not Active	Not Active	–	–	–
Nc1ccc(S(=O)(=O)Nc2ccnn2-c2ccccc2)cc1 [SULFAPHENAZOLE]	Not Active	Not Active	Not Active	Not Active	Not Active	Not Active	Not Active	Not Active	Not Active	Not Active	Not Active	Not Active	–	–	–
CSc1ccc2c(c1)N(CCC1CCCCN1C)c1ccccc1S2 (stereo not drawn) [THIORIDAZINE]	Not Active	Not Active	–	Not Active	Not Active	Not Active	–	–	Not Active	Not Active	Not Active	Not Active	0.00589 µM	0.0029 µM	–
CN(C)CCCN1c2ccccc2CCc2ccc(Cl)cc21 [CLOMIPRAMINE]	Not Active	Not Active	–	Not Active	Not Active	Not Active	–	–	Not Active	Not Active	Not Active	Not Active	0.18 µM	0.088 µM	–
CC(C)(O)c1ccccc1CC[C@@H](SCC1(CC(=O)O)CC1)c1cccc(/C=C/c2ccc3ccc(Cl)cc3n2)c1 [MONTELUKAST]	–	Not Active	Not Active	Not Active	Not Active	Not Active	–	–	Not Active	–	Not Active	Not Active	–	–	IC50 ([9]; read-out: IC50): 1.53 µM
Clc1ccccc1C(c1ccccc1)(c1ccccc1)n1ccnc1 [CLOTRIMAZOLE]	–	Not Active	–	Not Active	Not Active	Not Active	–	–	Not Active	–	–	–	15 µM	7.38 µM	IC50 ([1]; read-out: IC50): 33.2 µM; Ki ([1]; read-out: Ki): 16.6 µM; IC50 ([9]; read-out: IC50): 0.014 µM; IC50 ([10]; read-out: IC50): 27.3 µM; Ki [10]: 12.4 µM; IC50 ([11]; read-out: IC50): 35 µM; Ki ([11]; read-out: Ki): 22.6 µM
COC(=O)[C@@H]1[C@H]2C[C@H]3c4[nH]c5ccccc5c4CCN3C[C@@H]2CC[C@@H]1O [YOHIMBINE]	Not Active	Not Active	–	Not Active	Not Active	Not Active	Not Active	Not Active	Not Active	Not Active	Not Active	Not Active	–	–	–
COc1cccc(C2(O)CCCCC2CN(C)C)c1 (stereo not drawn) [TRAMADOL]	Not Active	Not Active	Not Active	Not Active	Not Active	Not Active	–	–	Not Active	Not Active	Not Active	Not Active	–	–	–
O=C(CCCN1CCC(O)(c2ccc(Cl)cc2)CC1)c1ccc(F)cc1 [HALOPERIDOL]	Not Active	Not Active	–	Not Active	Not Active	Not Active	–	–	Not Active	Not Active	Not Active	Not Active	–	–	–
COc1ccc(CCN2CCC(Nc3nc4ccccc4n3Cc3ccc(F)cc3)CC2)cc1 [ASTEMIZOLE]	Not Active	Not Active	–	Not Active	Not Active	Not Active	–	–	Not Active	Not Active	–	Not Active	0.769 µM	0.378 µM	IC50 ([10]; read-out: IC50): 1.39 µM; Ki [10]: 0.63 µM

From ChEMBL document CHEMBL1909046, “DrugMatrix in vitro pharmacology data”
